Results from patent US4596806A, “7-piperidino-1,2,3,5-tetrahydroimidazo[2,1-b]-quinazolin-2-one having platelet aggregation inhibitory activity” (Daiichi Seiyaku Co., Ltd., priority 1983, dated 1986).
pIC50: −log10 of the molar value. Counter-ions that a name gives are not always drawn. Like-named read-outs stand apart in the source and are kept apart here.

Legend:
[1] = Solubility Test (water-solubility); format: physicochemical
platelet aggregation [2] = experiment: Test of Platelet Aggregation Inhibition (in vitro), human PRP; format: cell-based; conditions: for pIC50: Homo sapiens, Platelet, human blood, read-out: Platelet Aggregation Inhibitory Activity (in vitro: IC50)
Description: (§1) The test was performed as follows in accordance with the method of Ashida et al, Thrombosis and Haemostasis, Vol. 40, p542 (1979).
(§2) Blood was taken by puncture from the heart of a Wistar Imamichi rat under anesthesia with pentobarbital into a syringe containing 1/10 volume of a 3.13% aqueous solution of sodium citrate dihydrate, and the citrated blood was centrifuged to obtain a platelet-rich-plasma (PRP). In the same manner, citrated blood was collected from the vein of a healthy human who had not taken aspirin or any other anti-inflammatory agent since before 10 days, followed by centrifugation to obtain PRP. 0.005 ml of each test compound was added to 0.445 ml each of these PRP samples, and the system was warmed at 30° C. for 1 minute. 0.05 ml of an aggregation inducer (ADP or collagen) was then added thereto, and platelet aggregation was determined according to the method of Born, Nature, Vol. 194, p927 (1962). The inhibitory activity of platelet aggregation was expressed in terms of 50% inhibition concentration, and the results obtained are shown in Table 2.

platelet aggregation [3] = experiment: Test of Platelet Aggregation Inhibition (in vitro), rat PRP; format: cell-based, rat (Wistar Imamichi); conditions: rat blood, read-out: Platelet Aggregation Inhibitory Activity (in vitro: IC50)
Description: as §1, §2

platelet aggregation [4] = experiment: Test of Platelet Aggregation Inhibition (ex vivo, p.o.); format: in vivo, rat (male Wistar Imamichi); conditions: for inhibition at 1 mg/kg / inhibition at 10 mg/kg: Rattus norvegicus, Platelet, po, 1 h, read-out: Platelet Aggregation Inhibitory Activity (ex vivo: % inhibition); for inhibition at 1 mg/kg: p.o. 1 mg/Kg; for inhibition at 10 mg/kg: p.o. 10 mg/Kg; for aggregation inhibitory activity ex vivo (in words): p.o. 10 mg/Kg or 1 mg/Kg, ADP- or collagen-induced
Description: One hour later, citrated blood was taken from the heart, and platelet aggregation was determined in the same manner as described in Test Example 2.

circulatory system = experiment: Test of Influence on Circulatory System (blood pressure, heart beat); format: in vivo, rat (male normal SLC-Wistar); conditions: p.o. 50 mg/Kg
Description: 5 or 6 male normal SLC-Wistar rats per group (body weight: 205-255 g) orally received 50 mg/Kg of the test compound, and the blood pressure (tail cuff method) and the heart beats were measured with the passage of time in order to elucidate influences of the test compound on the circulatory system.

[5] = pH 2, Tap Water, solution pH about 2

## O=C1CN2Cc3c(ccc(Cl)c3Cl)N=C2N1 [BL-4162, 6,7-dichloro-1,2,3,5-tetrahydro[2,1-b]quinazolin-2-one hydrochloride]
[1]; Water at pH 4
  solubility: 10 µg/mL
[1]; [5]
  solubility: 10 µg/mL
Platelet aggregation [2]; inducer ADP
  pIC50: 5.92
Platelet aggregation [2]; inducer collagen
  pIC50: 6.30
Platelet aggregation [3]; inducer ADP
  pIC50: 6.10
Platelet aggregation [3]; inducer collagen
  pIC50: 7.70
Platelet aggregation [4]; inducer ADP
  inhibition at 1 mg/kg: 10%
  inhibition at 10 mg/kg: 8%
Platelet aggregation [4]; inducer collagen
  inhibition at 1 mg/kg: 33%
  inhibition at 10 mg/kg: 53%
Platelet aggregation [4]
  aggregation inhibitory activity ex vivo (in words): cannot be regarded significant
Circulatory system; 1 hr after admin.
  Increase in Heart Beat: 28%
  Reduction in Blood Pressure: 11%
Circulatory system; 2 hr after admin.
  Increase in Heart Beat: 37%
  Reduction in Blood Pressure: 16%
Circulatory system; 3 hr after admin.
  Increase in Heart Beat: 31%
  Reduction in Blood Pressure: 17%
Circulatory system; 4 hr after admin.
  Increase in Heart Beat: 37%
  Reduction in Blood Pressure: 14%
Circulatory system; 5 hr after admin.
  Increase in Heart Beat: 31%
  Reduction in Blood Pressure: 14%
Circulatory system; 6 hr after admin.
  Increase in Heart Beat: 31%
  Reduction in Blood Pressure: 13%

## Cl.Cl.Nc1ccc2c(c1)CN1CC(=O)NC1=N2 [BL-7-NH2, 7-amino-1,2,3,5-tetrahydroimidazo[2,1-b]quinazolin-2-one dihydrochloride]
Platelet aggregation [2]; inducer ADP
  pIC50: 4.30
Platelet aggregation [2]; inducer collagen
  pIC50: 4.55
Platelet aggregation [2]; in vitro, Table 2 results (human and rat PRP)
  anti-platelet aggregation activity (in words): scarcely exhibits platelet aggregation inhibitory activity
Platelet aggregation [3]; inducer ADP
  pIC50: 3.77
Platelet aggregation [3]; inducer collagen
  pIC50: 4.80

## Cc1cccc2c1CN1CC(=O)NC1=N2.Cl [BL-3459, 6-methyl-1,2,3,5-tetrahydroimidazo[2,1-b]quinazolin-2-one hydrochloride]
[1]; Water at pH 4
  solubility: 10 µg/mL
[1]; [5]
  solubility: 100 µg/mL
Platelet aggregation [2]; inducer ADP
  pIC50: 5.77
Platelet aggregation [2]; inducer collagen
  pIC50: 6.15
Platelet aggregation [3]; inducer ADP
  pIC50: 5.30
Platelet aggregation [3]; inducer collagen
  pIC50: 6.12
Platelet aggregation [4]; inducer ADP
  inhibition at 1 mg/kg: 12%
  inhibition at 10 mg/kg: 31%
Platelet aggregation [4]; inducer collagen
  inhibition at 1 mg/kg: 41%
  inhibition at 10 mg/kg: 54%
Platelet aggregation [4]
  aggregation inhibitory activity ex vivo (in words): cannot be regarded significant
Circulatory system; 1 hr after admin.
  Increase in Heart Beat: 18%
  Reduction in Blood Pressure: 23%
Circulatory system; 2 hr after admin.
  Increase in Heart Beat: 20%
  Reduction in Blood Pressure: 28%
Circulatory system; 3 hr after admin.
  Increase in Heart Beat: 17%
  Reduction in Blood Pressure: 26%
Circulatory system; 5 hr after admin.
  Increase in Heart Beat: 18%
  Reduction in Blood Pressure: 34%
Circulatory system; 6 hr after admin.
  Increase in Heart Beat: 19%
  Reduction in Blood Pressure: 35%
Circulatory system; 24 hr after admin.
  Reduction in Blood Pressure: 12%
